{"source": "patent US9156860B2", "about": "“Boron-containing small molecules” (Anacor Pharmaceuticals, Inc., priority 2011, dated 2015)", "test_system": "adult American dog tick (Dermacentor variabilis)", "assay": "Example 6: efficacy against adult American dog tick infestations on dogs, 48 h and 72 h counts", "type": "in vivo", "conditions": "50 mg/kg oral", "procedure": "[…] Twelve (12) male and female beagle dogs were allocated to three treatment groups: Untreated, negative control A; 7 group B; and 7 group C (n=4 dogs per group). Dogs were infested with approximately 50 unfed, adult D. variabilis ticks on Days −1, 5, 12, 19 and 28. For 7 group B dogs, tick counts and classification were conducted at 48 hour post-treatment or post-infestation intervals on Days 2, 7, 14, 21 and 30. For negative control group A and 7 group C dogs, tick counts and classification were conducted at 72 hour post-treatment or post-infestation intervals on Days 3, 8, 15, 22 and 31. On Day 0, dogs in groups B and C were orally administered gelatin capsules containing 7 (50% technical active, 47% microcrystalline cellulose and 3% croscarmellose sodium, w/w) at a point dose of 50 mg/kg. Both 48 hour and 72 hour counts in the treated groups were adjusted to counts from the same 72 hour negative control group. GM percent efficacy of treatments was calculated using the following formula:", "data": [{"compound": "CC1(C)OB(O)c2ccc(C3=NOC(c4cc(Cl)c(Cl)c(Cl)c4)(C(F)(F)F)C3)cc21", "note": "(racemic) [Compound 7, 3,3-Dimethyl-5-(5-(3,4,5-trichlorophenyl)-5-(trifluoromethyl)-4,5-dihydroisoxazol-3-yl)benzo[c][1,2]oxaborol-1(3H)-ol]", "values": [{"measurement": "Geometric mean group live tick count", "setting": "Week 0, 48 h count (Day 2)", "result": 0.3}, {"measurement": "Geometric mean group live tick count", "setting": "Week 0, 72 h count (Day 3)", "result": 0.0}, {"measurement": "% efficacy", "setting": "Week 1, 48 h count (Day 7)", "result": "(85.1) %"}, {"measurement": "Geometric mean group live tick count", "setting": "Week 1, 48 h count (Day 7)", "result": 2.6}, {"measurement": "% efficacy", "setting": "Week 1, 72 h count (Day 8)", "result": "(100) %"}, {"measurement": "Geometric mean group live tick count", "setting": "Week 1, 72 h count (Day 8)", "result": 0.0}, {"measurement": "% efficacy", "setting": "Week 2, 48 h count (Day 14)", "result": "(78.3) %"}, {"measurement": "Geometric mean group live tick count", "setting": "Week 2, 48 h count (Day 14)", "result": 6.1}, {"measurement": "% efficacy", "setting": "Week 2, 72 h count (Day 15)", "result": "(99.3) %"}, {"measurement": "Geometric mean group live tick count", "setting": "Week 2, 72 h count (Day 15)", "result": 0.2}, {"measurement": "% efficacy", "setting": "Week 3, 48 h count (Day 21)", "result": "(13.0) %"}, {"measurement": "Geometric mean group live tick count", "setting": "Week 3, 48 h count (Day 21)", "result": 10.7}, {"measurement": "% efficacy", "setting": "Week 3, 72 h count (Day 22)", "result": "(100) %"}, {"measurement": "Geometric mean group live tick count", "setting": "Week 3, 72 h count (Day 22)", "result": 0.0}, {"measurement": "% efficacy", "setting": "Week 4, 48 h count (Day 30)", "result": "(35.5) %"}, {"measurement": "Geometric mean group live tick count", "setting": "Week 4, 48 h count (Day 30)", "result": 16.3}, {"measurement": "Geometric mean group live tick count", "setting": "Week 4, 72 h count (Day 31)", "result": 0.8}, {"measurement": "Residual efficacy using 72 hour count intervals", "setting": "through week 3 (Day 22)", "result": "> 99", "unit": "%"}, {"measurement": "Residual efficacy at 48 hour intervals", "setting": "through week 4 (Day 30)", "result": "< 90", "unit": "%"}]}]}
